Laboratory results from paper PMC8037182, “Solvothermal Synthesis of Multiple Dihydropyrimidinones at a Time as Inhibitors of Eg5” (Molecules, 2021).

Tests used:
[1] = test system: T24 cell line; test: Cytotoxicity MTS assay, T24 cell line; type: cell-based; settings: for OD490 Mean / OD490 Well 1 / OD490 Well 2 / OD490 Well 3: T24 cell line, first assay;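 as to OD490 Mean: blank control wells received 0.025% DMSO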;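 as to OD490 Well 1: blank control wells received 0.025% DMSO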;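 as to OD490 Well 2: blank control wells received 0.025% DMSO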;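 as to OD490 Well 3: blank control wells received 0.025% DMSO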
How it was run: (§1)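 Cells seeded at 1000 per well, grown 24 h, then exposed to compound (0.5–100 µM final) for 24 h with 0.025% DMSO blank. MTS reagent added for 2 h at 37 °C, absorbance read at 490 nm; IC50 from non-linear regression of % viability versus concentration, three independent duplicate experiments.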

[2] = test system: L929 cell line; test: Cytotoxicity MTS assay, L929 cell line; type: cell-based; settings: for OD490 values, Mean / OD490 values, Well 1 / OD490 values, Well 2 / OD490 values, Well 3: L929 cell line
How it was run: as §1

With CCOC(=O)c1[nH]c(C2NC(=O)NC(C)=C2C(=O)Nc2ccc(Cl)cc2)c(C(=O)OCC)c1C (centres unmarked) [D7] the IC50 ([1]; MTS assay, 24 h exposure) was > 150 µM, the “OD490 Mean” value ([1]; 0.5μM) was 1.2446 and the “OD490 Well 1” value ([1]; 0.5μM) was 1.2491. The “OD490 Well 2” value ([1]; 0.5μM) was 1.2874, the “OD490 Well 3” value ([1]; 0.5μM) was 1.1973 and the “OD490 Mean” value ([1]; 1μM) was 1.5295. The “OD490 Well 1” value ([1]; 1μM) was 1.4588, the “OD490 Well 2” value ([1]; 1μM) was 1.7975 and the “OD490 Well 3” value ([1]; 1μM) was 1.3323. For the same compound, the “OD490 Mean” value ([1]; 10μM) was 1.4981, the “OD490 Well 1” value ([1]; 10μM) was 1.4996 and the “OD490 Well 2” value ([1]; 10μM) was 1.6104. The “OD490 Well 3” value ([1]; 10μM) was 1.3842, the “OD490 Mean” value ([1]; 25μM) was 1.5238 and the “OD490 Well 1” value ([1]; 25μM) was 1.6186. The “OD490 Well 2” value ([1]; 25μM) was 1.5573, the “OD490 Well 3” value ([1]; 25μM) was 1.3956 and the “OD490 Mean” value ([1]; 50μM) was 1.3341. For the same compound, the “OD490 Well 1” value ([1]; 50μM) was 1.3613, the “OD490 Well 2” value ([1]; 50μM) was 1.2657 and the “OD490 Well 3” value ([1]; 50μM) was 1.3754. For the same compound, the “OD490 Mean” value ([1]; 100μM) was 1.4451, the “OD490 Well 1” value ([1]; 100μM) was 1.4704 and the “OD490 Well 2” value ([1]; 100μM) was 1.5023. For the same compound, the “OD490 Well 3” value ([1]; 100μM) was 1.3625, the “OD490 values, Mean” value ([2]; 0.5μM, first assay) was 1.2964 and the “OD490 values, Well 1” value ([2]; 0.5μM, first assay) was 1.2432. The “OD490 values, Well 2” value ([2]; 0.5μM, first assay) was 1.3324, the “OD490 values, Well 3” value ([2]; 0.5μM, first assay) was 1.3135 and the “OD490 values, Mean” value ([2]; 0.5μM, second assay) was 1.6723. The “OD490 values, Well 1” value ([2]; 0.5μM, second assay) was 1.6985, the “OD490 values, Well 2” value ([2]; 0.5μM, second assay) was 1.7484 and the “OD490 values, Well 3” value ([2]; 0.5μM, second assay) was 1.5699. The “OD490 values, Mean” value ([2]; 0.5μM, third assay) was 1.6351, the “OD490 values, Well 1” value ([2]; 0.5μM, third assay) was 1.6545 and the “OD490 values, Well 2” value ([2]; 0.5μM, third assay) was 1.5521. For the same compound, the “OD490 values, Well 3” value ([2]; 0.5μM, third assay) was 1.6987, the “OD490 values, Mean” value ([2]; 1μM, first assay) was 1.2921 and the “OD490 values, Well 1” value ([2]; 1μM, first assay) was 1.3838. For the same compound, the “OD490 values, Well 2” value ([2]; 1μM, first assay) was 1.2582, the “OD490 values, Well 3” value ([2]; 1μM, first assay) was 1.2343 and the “OD490 values, Mean” value ([2]; 1μM, second assay) was 1.6805. For the same compound, the “OD490 values, Well 1” value ([2]; 1μM, second assay) was 1.6879, the “OD490 values, Well 2” value ([2]; 1μM, second assay) was 1.6582 and the “OD490 values, Well 3” value ([2]; 1μM, second assay) was 1.6955. For the same compound, the “OD490 values, Mean” value ([2]; 1μM, third assay) was 1.6677, the “OD490 values, Well 1” value ([2]; 1μM, third assay) was 1.6254 and the “OD490 values, Well 2” value ([2]; 1μM, third assay) was 1.6358. For the same compound, the “OD490 values, Well 3” value ([2]; 1μM, third assay) was 1.7420, the “OD490 values, Mean” value ([2]; 10μM, first assay) was 1.2890 and the “OD490 values, Well 1” value ([2]; 10μM, first assay) was 1.2982. For the same compound, the “OD490 values, Well 2” value ([2]; 10μM, first assay) was 1.3257, the “OD490 values, Well 3” value ([2]; 10μM, first assay) was 1.2432 and the “OD490 values, Mean” value ([2]; 10μM, second assay) was 1.6485. The “OD490 values, Well 1” value ([2]; 10μM, second assay) was 1.6354, the “OD490 values, Well 2” value ([2]; 10μM, second assay) was 1.6254 and the “OD490 values, Well 3” value ([2]; 10μM, second assay) was 1.6847. The “OD490 values, Mean” value ([2]; 10μM, third assay) was 1.7036, the “OD490 values, Well 1” value ([2]; 10μM, third assay) was 1.5935 and the “OD490 values, Well 2” value ([2]; 10μM, third assay) was 1.8852. For the same compound, the “OD490 values, Well 3” value ([2]; 10μM, third assay) was 1.6320, the “OD490 values, Mean” value ([2]; 25μM, first assay) was 1.2098 and the “OD490 values, Well 1” value ([2]; 25μM, first assay) was 1.2509. The “OD490 values, Well 2” value ([2]; 25μM, first assay) was 1.2839, the “OD490 values, Well 3” value ([2]; 25μM, first assay) was 1.0945 and the “OD490 values, Mean” value ([2]; 25μM, second assay) was 1.5137. For the same compound, the “OD490 values, Well 1” value ([2]; 25μM, second assay) was 1.4655, the “OD490 values, Well 2” value ([2]; 25μM, second assay) was 1.5869 and the “OD490 values, Well 3” value ([2]; 25μM, second assay) was 1.4888. For the same compound, the “OD490 values, Mean” value ([2]; 25μM, third assay) was 1.4100, the “OD490 values, Well 1” value ([2]; 25μM, third assay) was 1.4658 and the “OD490 values, Well 2” value ([2]; 25μM, third assay) was 1.4441. The “OD490 values, Well 3” value ([2]; 25μM, third assay) was 1.3201, the “OD490 values, Mean” value ([2]; 50μM, first assay) was 1.1393 and the “OD490 values, Well 1” value ([2]; 50μM, first assay) was 1.0255. For the same compound, the “OD490 values, Well 2” value ([2]; 50μM, first assay) was 1.3097, the “OD490 values, Well 3” value ([2]; 50μM, first assay) was 1.0826 and the “OD490 values, Mean” value ([2]; 50μM, second assay) was 1.3764. For the same compound, the “OD490 values, Well 1” value ([2]; 50μM, second assay) was 1.3685, the “OD490 values, Well 2” value ([2]; 50μM, second assay) was 1.3652 and the “OD490 values, Well 3” value ([2]; 50μM, second assay) was 1.3955. For the same compound, the “OD490 values, Mean” value ([2]; 50μM, third assay) was 1.3402, the “OD490 values, Well 1” value ([2]; 50μM, third assay) was 1.3584 and the “OD490 values, Well 2” value ([2]; 50μM, third assay) was 1.2635. For the same compound, the “OD490 values, Well 3” value ([2]; 50μM, third assay) was 1.3987, the “OD490 values, Mean” value ([2]; 100μM, first assay) was 0.7147 and the “OD490 values, Well 1” value ([2]; 100μM, first assay) was 0.7427. For the same compound, the “OD490 values, Well 2” value ([2]; 100μM, first assay) was 0.7798, the “OD490 values, Well 3” value ([2]; 100μM, first assay) was 0.6215 and the “OD490 values, Mean” value ([2]; 100μM, second assay) was 0.8285. The “OD490 values, Well 1” value ([2]; 100μM, second assay) was 0.8306, the “OD490 values, Well 2” value ([2]; 100μM, second assay) was 0.7562 and the “OD490 values, Well 3” value ([2]; 100μM, second assay) was 0.8988. The “OD490 values, Mean” value ([2]; 100μM, third assay) was 0.8420, the “OD490 values, Well 1” value ([2]; 100μM, third assay) was 0.8635 and the “OD490 values, Well 2” value ([2]; 100μM, third assay) was 0.8992. For the same compound, the “OD490 values, Well 3” value ([2]; 100μM, third assay) was 0.7632 and the IC50 ([2]; MTS assay, 24 h exposure, ordinary fibroblast, not cancer cells) was 94.7 µM.
